In this assay the target is T1, hPepT1 (Homo sapiens, UniProt P46059).
T1 construct: expressed in transfected cells; host or cells: HeLa cells (ATCC), transient transfection with FuGene6
T1 sequence (P46059 1-708): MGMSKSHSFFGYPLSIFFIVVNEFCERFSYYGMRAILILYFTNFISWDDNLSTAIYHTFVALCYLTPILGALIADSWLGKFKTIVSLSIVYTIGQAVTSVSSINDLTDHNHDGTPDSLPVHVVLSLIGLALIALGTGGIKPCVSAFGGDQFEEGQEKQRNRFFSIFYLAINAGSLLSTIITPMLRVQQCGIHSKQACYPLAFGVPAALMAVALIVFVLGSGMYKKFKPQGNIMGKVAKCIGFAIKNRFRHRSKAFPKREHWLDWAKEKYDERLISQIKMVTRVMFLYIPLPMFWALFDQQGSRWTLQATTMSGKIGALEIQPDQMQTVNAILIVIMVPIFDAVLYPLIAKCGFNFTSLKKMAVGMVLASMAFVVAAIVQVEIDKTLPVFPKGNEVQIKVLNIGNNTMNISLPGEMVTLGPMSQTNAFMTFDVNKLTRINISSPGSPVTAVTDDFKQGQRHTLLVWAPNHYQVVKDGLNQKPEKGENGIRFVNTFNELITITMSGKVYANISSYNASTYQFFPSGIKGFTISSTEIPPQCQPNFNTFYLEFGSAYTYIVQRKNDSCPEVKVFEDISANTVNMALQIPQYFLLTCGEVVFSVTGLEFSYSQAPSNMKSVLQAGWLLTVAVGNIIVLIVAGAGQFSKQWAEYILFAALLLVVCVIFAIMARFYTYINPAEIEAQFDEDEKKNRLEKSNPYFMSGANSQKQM
Nature of the assay: In Vitro PepT1 GlySar Inhibition Screen and IC50 Determination. Type of assay: cell-based. The method, then:
PepT1 assays are established to examine the ability of the amino acid prodrug compounds to interact with the intestinal absorption transporter PepT1.
HeLa cells, […], (American Type Culture Collection) are grown in Hyclone Medium (Invitrogen, Cat# SH30243) containing 10% fetal bovine serum (FBS), 0.1 mM non essential amino acids (NEAA), and 100 units/mL penicillin with 100 μg/mL streptomycin at 37° C. in a 5% CO2 humidified atmosphere. The cell line is used for up to 40 passages and then discarded. Frozen cells in 1 ml vials are thawed in water bath for 1-2 minutes and added to 5 mL of cell medium at 37° C. Each of the T-flasks is provided with 8.5 mL of the fresh medium and 1.5 mL of the cell stock. Cells are passaged twice during a week. This is achieved by rinsing the flasks with 10 mL of phosphate buffered saline-ethylene diaminetetra acetic acid (PBS-EDTA), adding 2 mL of trypsin for 2-5 minutes, to detach the cells, and adding 8 mL of fresh medium to inhibit further activity of trypsin. Each new flask receives a combination of 8.5 mL of fresh medium and 1.5 mL of cell stock, in order to obtain 1:6 cell dilution. Cells are incubated at 37° C., until ready for the uptake study.
Cells that are 70-80% confluent in the T-flasks are plated 1 day prior to the transfection procedure. The flask with the cell stock is treated with PBS-EDTA and trypsin to detach the cells, and transfection medium is used from this point. Transfection medium consists of Dulbecco's Modified Eagle Medium (DMEM)+NEAA. To each well, 0.5 mL of the cell mixture is added (1.3×10^5 is the desired cell concentration) and the cells are incubated at 37° C. overnight. Twenty four hours before the assay, cells are transfected with PEPT1. Transfection mixture is prepared by mixing 600 μL of serum free transfection medium, 18 μL of FuGene6 (Roche Diagnostics), and 11 μg of the PepT1 DNA. The transfection reagent-DNA complex is incubated for 20 minutes and 24 μL of the reagent-DNA complex is added to each well.
J. Pharm. Exper Ther. 310:437-445). […] Uptake media consists of 140 mM NaCl, 5.4 mM KCl, 1.8 mM CaCl2, 0.8 mM MgSO4, 5 mM Glucose, 25 mM tris(hydroxymethyl)aminomethane buffer (TRIS). The solution is then brought to pH 6.0 using 2-(N-morpholino)ethanesulfonic acid. The incubation volume is 500 μL and is performed at room temperature for 3 minutes. To stop the uptake at the conclusion of the incubation time, the uptake media is aspirated off of the cell monolayer and 500 μL of ice cold PBS added to the well. The cells are washed 3 times with 500 μL of room temperature PBS without Ca^+2 and Mg^+2. The cells are then lysed with 300 μL of 1% Triton X100 H2O solution. […] A no inhibitor control is established and the percent inhibition of each prodrug is calculated with respect to this control.
The incubation and sampling procedures are exactly the same as the PepT1 screen described above. […]

`C[C@H](N)C(=O)N[C@@]1(C(=O)O)C[C@@H](Sc2nnc[nH]2)[C@H]2[C@H](C(=O)O)[C@H]21.Cl` [Example 2, (1R,2S,4R,5R,6R)-2-[[(2S)-2-Aminopropanoyl]amino]-4-(1H-1,2,4-triazol-3-ylsulfanyl)bicyclo[3.1.0]hexane-2,6-dicarboxylic acid hydrochloride]: the inhibition at 5000 µM (5 mM, pH 6.0, PepT1 transiently transfected HeLa cells, read-out: hPepT1 [3H]Gly-Sar uptake inhibition at 5 mM) was determined as 38%. Further, under “0.0625 to 25 mM, PepT1 transfected HeLa cells, read-out: hPepT1 [3H]Gly-Sar uptake inhibition IC50”, the IC50 is 1840 µM.

Usually inhibition stands for the relative decrease from the control value, in per cent. One may read the IC50 as the point on the concentration scale where inhibition reaches its midpoint.

The values above are taken from US8318184B2, “MGLU2 agonists” (Eli Lilly and Company, priority 2009, dated 2012).
